{
  "source": "patent US20190070170A1",
  "about": "“METHOD OF S[…]-1” (Macau University of Science and Technology, priority 2017, published 2019)",
  "key": {"COX-2 [1]": {"tested_on": "COX-2", "experiment": "COX-2 protein expression in LPS-activated rat peritoneal macrophages (western blotting)", "type": "cell-based", "conditions": "SIN or DEX 1 h, LPS 24 h", "method": "(§1) Sprague-Dawley (SD) rats from the University of Hong Kong were housed in cages with free access to food and water. Peritoneal macrophages of SD rats were isolated as described in Liu J. et al., Pharmacological research 2016, 111:303-315. Briefly, untreated rats were sacrificed and after laparotomy, about 50 ml cold sterile Hank's balanced salt solution (HBSS) was used to lavage the peritoneal cavity at twice, and then the peritoneal lavage fluid was collected and centrifuged at 1500 rpm for 10 min. The cell pellets was suspended at a density 1.5×10^6 cells/ml in pre-hearted DMEM medium with 10% heat-inactivated FBS, penicillin G (100 units/ml), streptomycin ([…]), and L-glutamine (2 mM), followed by seeding in 6-well plates at a density of 4.5×10^6 cells and incubation for 2 h. Then the medium were discarded to remove the non-adherent cells. The adherent cells were further washed for two times with pre-heated DMEM medium to remove floating cells. Next, cells were pre-treated with various concentration of SIN for 1 h, followed by stimulation with LPS (1 μg/ml).\n(§2) Whole-cell and nuclear proteins were obtained using RIPA lysis buffer (CST, Boston, Mass., USA) and Nuclear and Cytoplasmic Extraction Reagents kit from Thermo Scientific (Asheville, N.C., USA), respectively. […] The levels of protein expression were measured using Odyssey v3.0 software from Li-COR (Lincoln, Nebr., USA)."}, "PGI2": {"tested_on": "PGI2", "experiment": "PGI2 level in culture supernatants of LPS-activated rat peritoneal macrophages (ELISA)", "type": "cell-based", "conditions": "LPS-stimulated rat peritoneal macrophages, culture supernatant", "method": "as §1\nRAW264.7 cells and rat peritoneal macrophages were seeded in a 96-well plate at density of 1.4×10^4 and 1.5×10^5 cells, respectively. […] The optical density was measured at 570 nm against a reference wavelength of 650 nm using a microplate UV/VIS spectrophotometer (Tecan, Mannedorf, Switzerland). […]"}, "COX-2 [2]": {"tested_on": "COX-2", "experiment": "COX-2 protein expression in hind paws of CIA DBA/1 mice", "type": "in vivo", "conditions": "SIN 100 mg/kg i.p.", "method": "Female DBA/1 mice (8-9 weeks old) were purchased from Shanghai SiLaike (SLAC) Laboratory Animal Company (Shanghai, China) and fed with a chow diet and water at room temperature. Equal volume of complete Freuend's adjuvant (CFA) and Bovine Type II Collagen (CII) were mixed and emulsified using a homogenizer (13,000 rpm) on ice. On day 0, DBA/1 mice were immunized by injecting 50 μl of CII in CFA in the tail, approximately 2 cm from the base of the tail. […] The incidence of joint swelling in each group was recorded every two days since drug treatment. […]\nFrozen paws were pulverized in liquid nitrogen using a stainless steel mortar and pestle, then re-suspended in 8 volumes of ice-cold PBS from Invitrogen (San Diego, Calif., USA) with 2.6 mM DTT from Promega (Madison, Wis., USA) and 2×Complete Protease Inhibitor mixture from Roche (Mannheim, Germany), and homogenized on ice bath using a tissue homogenizer from T25 digital, IKA (Stanfen, Germany) at 10,000 rpm/min for 5 min. […] The protein concentrations were measured using a Bio-Rad protein assay kit (Hercules, Calif., USA). […]\nas §2"}, "CREB": {"tested_on": "CREB", "experiment": "CREB pathway (p-CREB) in LPS-stimulated rat peritoneal macrophages (western blotting)", "type": "cell-based", "conditions": "SIN 1 h, LPS 1 μg/ml 15 min or 1 h", "method": "as §1, §2"}, "iNOS": {"tested_on": "iNOS", "experiment": "iNOS protein level in LPS-stimulated RAW264.7 cells (immunoblotting)", "type": "cell-based, mouse", "conditions": "pretreatment 1 h, LPS 100 ng/ml 18 h", "method": "RAW264.7 and A549 cell lines were obtained from American Type Culture Collection (ATCC, Manassas, Va., USA) and maintained in DMEM (RAW264.7) or 1640 (A549) medium containing 10% FBS (Gibco-BRL, Grand Island, N.Y., USA) and antibiotics at 37° C. in a humidified atmosphere containing 5% CO2. RAW264.7 cells were plated in 6-well plates at a density of 4×10^5 cells and incubated for 24 h, then the cells were pretreated with different concentrations of SIN for 1 h before stimulating with LPS (100 ng/ml). A549 cells were seeded in 6-well plates at a density of 1×10^5 cells and incubated for 24 h, followed by pretreatment with SIN. A549 cells were then stimulated by IL-1β (1 ng/ml).\nWhole-cell and nuclear proteins were obtained using RIPA lysis buffer (CST, Boston, Mass., USA) and Nuclear and Cytoplasmic Extraction Reagents kit from Thermo Scientific (Asheville, N.C., USA), respectively. For immunoblotting, proteins from whole-cell, cytoplasm, nuclear, and microsomal fractions were separated on SDS-PAGE, then transferred onto a nitrocellulose membrane from GE Healthcare Life Sciences (Buckinghamshire, UK), and incubated with 5% skimmed milk at room temperature for 1 h. […] The levels of protein expression were measured using Odyssey v3.0 software from Li-COR (Lincoln, Nebr., USA)."}},
  "data": [
    {"smiles": "COC1=C[C@@H]2[C@@H]3Cc4ccc(OC)c(O)c4[C@]2(CCN3C)CC1=O", "note": "[SIN, sinomenine]", "values": [
      {"measurement": "COX-2 protein expression", "setting": "COX-2 [1]", "value": "did not suppress"},
      {"measurement": "level of PGI2", "setting": "PGI2", "value": "no significant influence"},
      {"measurement": "COX-2 expression in paw tissues", "setting": "COX-2 [2]", "value": "did not produce observable changes"},
      {"measurement": "influence on CREB pathway", "setting": "CREB", "value": "No observable effects"},
      {"measurement": "iNOS expression", "setting": "iNOS", "value": "significantly inhibited"}
    ]}
  ]
}
